Results on 48 compounds are retold here after patent US7560464B2, “Polycyclic pyrimidines as potassium ion channel modulators” (Icagen, Inc., priority 2004, dated 2009).

Where only a bound is given, the exact number is not on record here.

For one experiment, the target named is hSK2 (Homo sapiens, UniProt Q9H2S1). Kind of experiment: Assay for compound activity towards hSK channels (86Rb+ efflux). It counts as cell-based. The settings on record: 86Rb+ efflux stimulated with calcium ionophore; drug 0.01 to 30 μM in EBSS; read-out: hSK2 Inhibitory Activity. How it is done: 20.1 Assay for Compound Activity Towards hSK Channels
Cells expressing small conductance, calcium activated potassium channels, such as SK-like channels were loaded with ^86Rb^+ by culture in media containing ^86RbCl. Following loading, the culture media was removed and the cells were washed in EBSS to remove residual traces of ^86Rb^+. Cells were preincubated with the drug (0.01 to 30 μM in EBSS) and then ^86Rb^+ efflux was stimulated by exposing cells to EBSS solution supplemented with a calcium ionophore, such as ionomycin, in the continued presence of the drug. After a suitable efflux period, the EBSS/ionophore solution was removed from the cells and the ^86Rb^+ content was determined by Cherenkov counting (Wallac Trilux). Cells were then lysed with a SDS solution and the ^86Rb^+ content of the lysate was determined. Percent ^86Rb^+ efflux was calculated according to the following equation: (^86Rb^+ content in EBSS/(^86Rb^+ content in EBSS+^86Rb^+ content of the lysate))×100 20.2 Results
Take `COc1cnc(-c2ccccn2)nc1Nc1ccc(-c2ccc(C)o2)cn1` [(5-Methoxy-2-pyridin-2-yl-pyrimidin-4-yl)-[5-(5-methyl-furan-2-yl)-pyridin-2-yl]-amine]: the IC50 was 100 to 1000 nM.

As to `COc1cnc(-c2ccccn2)nc1Nc1ccc(F)cn1` [(5-Fluoro-pyridin-2-yl)-(5-methoxy-2-pyridin-2-yl-pyrimidin-4-yl)-amine], the IC50 was 100 to 1000 nM.

For the compound `FC(F)(F)c1ccc(Nc2nccc(-c3ccccn3)n2)nc1` [(4-Pyridin-2-yl-pyrimidin-2-yl)-(5-trifluoromethyl-pyridin-2-yl)-amine], the IC50 fell in the range of 5000 to 30000 nM.

On to `COc1cnc(-c2ccccn2)nc1Nc1ccc([N+](=O)[O-])cn1` [(5-Methoxy-2-pyridin-2-yl-pyrimidin-4-yl)-(5-nitro-pyridin-2-yl)-amine], for which the IC50 lay in the range of 5000 to 30000 nM.

For `COc1cnc(-c2ccccn2)nc1NNc1ccccn1` [N-(5-Methoxy-2-pyridin-2-yl-pyrimidin-4-yl)-N′-pyridin-2-yl-hydrazine], the IC50 lay in the range of 5000 to 30000 nM.

With `COc1cnc(-c2ccccn2)nc1Nc1ccc(N(C)C)cn1` [N^2-(5-Methoxy-2-pyridin-2-yl-pyrimidin-4-yl)-N5,N5-dimethyl-pyridine-2,5-diamine], the IC50 fell in the range of 100 to 1000 nM.

In the case of `COc1cnc(-c2ccccn2)nc1Nc1cc(C)ccn1` [(5-Methoxy-2-pyridin-2-yl-pyrimidin-4-yl)-(4-methyl-pyridin-2-yl)-amine], the IC50 is less than 100 nM.

Turning to `COc1cnc(-c2ccccn2)nc1Nc1ccc(N2CCCC2)cn1` [(5-Methoxy-2-pyridin-2-yl-pyrimidin-4-yl)-(5-pyrrolidin-1-yl-pyridin-2-yl)-amine], the IC50 was less than 100 nM.

For `Cc1nc(-c2ccccn2)nc(Nc2ccc(C(F)(F)F)cn2)c1Cl` [(5-Chloro-6-methyl-2-pyridin-2-yl-pyrimidin-4-yl)-(5-trifluoromethyl-pyridin-2-yl)-amine], the IC50 lay in the range of 5000 to 30000 nM.

Consider `Clc1ccc(Nc2ccnc(-c3ccccn3)n2)nc1` [(5-Chloro-pyridin-2-yl)-(2-pyridin-2-yl-pyrimidin-4-yl)-amine], for which the IC50 fell in the range of 1000 to 5000 nM.

On to `COc1cnc(-c2ccccn2)nc1Nc1ccc(-c2cccs2)cn1` [(5-Methoxy-2-pyridin-2-yl-pyrimidin-4-yl)-(5-thiophen-2-yl-pyridin-2-yl)-amine], for which the IC50 was less than 100 nM.

As for `c1ccc(Nc2nc(-c3ccccn3)c3ccccc3n2)nc1` [Pyridin-2-yl-(4-pyridin-2-yl-quinazolin-2-yl)-amine], the IC50 fell in the range of 5000 to 30000 nM.

Turning to `FC(F)(F)c1ccc(Nc2cc(-c3ccccn3)nc(-c3ccccn3)n2)nc1` [(2,6-Di-pyridin-2-yl-pyrimidin-4-yl)-(5-trifluoromethyl-pyridin-2-yl)-amine], the IC50 lay within 5000 to 30000 nM.

As to `c1ccc(-c2ccc(Nc3nccc(-c4ccccn4)n3)nc2)cc1` [(5-Phenyl-pyridin-2-yl)-(4-pyridin-2-yl-pyrimidin-2-yl)-amine], the IC50 was 100 to 1000 nM.

`c1ccc(Nc2cc(-c3ccccn3)nc(-c3ccccn3)n2)nc1` [(2,6-Di-pyridin-2-yl-pyrimidin-4-yl)-pyridin-2-yl-amine]: the IC50 lay in the range of 5000 to 30000 nM.

Consider `COc1cnc(-c2ccccn2)nc1Nc1ccc(-c2cccc(F)c2)cn1` [[5-(3-Fluoro-phenyl)-pyridin-2-yl]-(5-methoxy-2-pyridin-2-yl-pyrimidin-4-yl)-amine], for which the IC50 lay within 100 to 1000 nM.

For the compound `Clc1cc(-c2ccccn2)nc(-c2ccccn2)n1` [4-Chloro-2,6-di-pyridin-2-yl-pyrimidine], the IC50 fell in the range of 1000 to 5000 nM.

As to `Cc1ccnc(Nc2nccc(-c3ccccn3)n2)c1` [(4-Methyl-pyridin-2-yl)-(4-pyridin-2-yl-pyrimidin-2-yl)-amine], the IC50 is less than 100 nM.

For `COc1cnc(-c2ccccn2)nc1Nc1ccc(-c2ccsc2)cn1` [(5-Methoxy-2-pyridin-2-yl-pyrimidin-4-yl)-(5-thiophen-3-yl-pyridin-2-yl)-amine], the IC50 is less than 100 nM.

With `c1ccc(Nc2nccc(-c3ccccn3)n2)nc1` [Pyridin-2-yl-(4-pyridin-2-yl-pyrimidin-2-yl)-amine], the IC50 is less than 100 nM.

For `Clc1ccc(Nc2nccc(-c3ccccn3)n2)nc1` [(5-Chloro-pyridin-2-yl)-(4-pyridin-2-yl-pyrimidin-2-yl)-amine], the IC50 fell in the range of 100 to 1000 nM.

On to `Cc1cccc(-c2nccc(Nc3ccccn3)n2)n1` [[2-(6-methyl-pyridin-2-yl)-pyrimidin-4-yl]-pyridin-2-yl-amine], for which the IC50 is 1000 to 5000 nM.

As to `COc1ccc(Nc2nc(-c3ccccn3)ncc2OC)nc1` [(5-Methoxy-pyridin-2-yl)-(5-methoxy-2-pyridin-2-yl-pyrimidin-4-yl)-amine], the IC50 is less than 100 nM.

`COc1cnc(-c2ccccn2)nc1Nc1ccc(N2CCCC2=O)cn1` [1-[6-(5-Methoxy-2-pyridin-2-yl-pyrimidin-4-ylamino)-pyridin-3-yl]-pyrrolidin-2-one]: the IC50 is less than 100 nM.

Regarding `COc1cnc(-c2ccccn2)nc1Nc1ccc(N)cn1` [N^2-(5-Methoxy-2-pyridin-2-yl-pyrimidin-4-yl)-pyridine-2,5-diamine], the IC50 was less than 100 nM.

Regarding `COc1cnc(-c2ccccn2)nc1Nc1ccccn1` [(5-Methoxy-2-pyridin-2-yl-pyrimidin-4-yl)-pyridin-2-yl-amine], the IC50 lay within 100 to 1000 nM.

Regarding `COc1cnc(-c2ccccn2)nc1Nc1ccc(Br)cn1` [(5-Bromo-pyridin-2-yl)-(5-methoxy-2-pyridin-2-yl-pyrimidin-4-yl)-amine], the IC50 was in the range of 5000 to 30000 nM.

Turning to `COc1cnc(-c2ccccn2)nc1Nc1ccc(Cl)cn1` [(5-Chloro-pyridin-2-yl)-(5-methoxy-2-pyridin-2-yl-pyrimidin-4-yl)-amine], the IC50 was 100 to 1000 nM.

For the compound `c1ccc(Nc2nc(-c3ccccn3)nc3ccccc23)nc1` [Pyridin-2-yl-(2-pyridin-2-yl-quinazolin-4-yl)-amine], the IC50 was in the range of 100 to 1000 nM.

For the compound `Cc1cccc(-c2ccnc(Nc3ccccn3)n2)n1` [[4-(6-methyl-pyridin-2-yl)-pyrimidin-2-yl]-pyridin-2-yl-amine], the IC50 lay within 1000 to 5000 nM.

In the case of `COc1cnc(-c2ccccn2)nc1Nc1ccc(C(F)(F)F)cn1` [(5-Methoxy-2-pyridin-2-yl-pyrimidin-4-yl)-(5-trifluoromethyl-pyridin-2-yl)-amine], the IC50 is 5000 to 30000 nM.

With `CN(c1ccccn1)c1nccc(-c2ccccn2)n1` [Methyl-pyridin-2-yl-(4-pyridin-2-yl-pyrimidin-2-yl)-amine], the IC50 fell in the range of 5000 to 30000 nM.

On to `COc1cnc(-c2ccccn2)nc1Nc1ccc(-c2ccccc2)cn1` [(5-Methoxy-2-pyridin-2-yl-pyrimidin-4-yl)-(5-phenyl-pyridin-2-yl)-amine], for which the IC50 was 100 to 1000 nM.

Turning to `COc1cnc(-c2ccccn2)nc1Nc1ccc(N2CCN(C)CC2)cn1` [(5-Methoxy-2-pyridin-2-yl-pyrimidin-4-yl)-[5-(4-methyl-piperazin-1-yl)-pyridin-2-yl]-amine], the IC50 lay within 100 to 1000 nM.

In the case of `Cc1cc(Nc2ccccn2)nc(-c2ccccn2)n1` [(6-methyl-2-pyridin-2-yl-pyrimidin-4-yl)-pyridin-2-yl-amine], the IC50 is 5000 to 30000 nM.

Regarding `COc1cnc(-c2ccccn2)nc1Nc1ccc(N2CCC(C)CC2)cn1` [(5-Methoxy-2-pyridin-2-yl-pyrimidin-4-yl)-(4-methyl-3,4,5,6-tetrahydro-2H-[1,3′]bipyridinyl-6′-yl)-amine], the IC50 is less than 100 nM.

The target in another experiment is SK2 subtype channels (Rattus norvegicus, UniProt P70604).
Experiment: not given
The settings on record: patch clamp; cited from earlier work.
With `CN(C)CCC=C1c2ccccc2CCc2ccccc21` [amitriptyline], the “block of SK2 channel currents” value is on record as “block SK2 channel currents with micromolar affinity”.

Consider `Nc1c2c(nc3ccccc13)CCCC2` [tacrine], for which the “block of SK2 channel currents” value is given as “block SK2 channel currents with micromolar affinity”.

As to `NC(=O)N1c2ccccc2C=Cc2ccccc21` [carbamazepine], the “block of SK2 channel currents” value is “block SK2 channel currents with micromolar affinity”.

The next experiment concerns the target T1, recombinant human SK4 (hIK1 or hKCa4) channels (Homo sapiens, UniProt O15554+P0DP23).
T1 construct: host or cells: HEK 293
Experiment: not given
To be noted: applied to the inside of SK4 channel-expressing membrane patches; cited from earlier work.
With strontium, the “activation of SK4 channels” value is recorded as “activated SK4 channels in a concentration-dependent manner”.

For the compound iron, the “activation of SK4 channels” value is given as “did not activate”.

calcium: the “activation of SK4 channels” value is given as “activated SK4 channels in a concentration-dependent manner”.

Regarding magnesium, the “activation of SK4 channels” value is “did not activate”.

On to Barium, for which the “activation of SK4 channels” value is “activated SK4 channels in a concentration-dependent manner”.

With lead, the “activation of SK4 channels” value is recorded as “activated SK4 channels in a concentration-dependent manner”.

As to cobalt, the “activation of SK4 channels” value was “did not activate”.

As for cadmium, the “activation of SK4 channels” value was “activated SK4 channels in a concentration-dependent manner”.

Consider zinc, for which the “activation of SK4 channels” value is given as “did not activate”.
